Laboratory results: the METLIN SMRT retention time set (Domingo-Almenara et al. 2019)

Test: gradient 5% acetonitrile 3 min, to 50% in 2 min, to 85% in 15 min, held 3 min, 100 µL/min
Conditions: column: Zorbax Extend-C18 2.1 x 50 mm; eluents: water / acetonitrile, 0.1% formic acid
In short: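 Over 3 months, pure standards in mixtures of ~100 molecules were run by HPLC coupled to a quadrupole time-of-flight mass spectrometer in positive and negative ionization mode. The column was a Zorbax Extend-C18 (2.1 × 50 mm, 1.8 μm) at 100 μL/min, eluted with water and acetonitrile each holding 0.1% formic acid, with 40 μL dead and 900 μL dwell volumes. Retention time was determined from adduct peaks chosen by software and checked manually.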

Structure (SMILES) | RP-LC retention time [s]
Cc1cccc(CN2C(=O)CN(S(C)(=O)=O)CC2(C)C(=O)NCc2ccc(F)cc2)c1 (centres undefined) | 856
Cc1cccc(-c2nc(NCc3ccncc3)ncc2C(=O)O)c1 | 587
COc1ccccc1NC(=O)C1CCN(S(=O)(=O)c2cc(C(=O)N3CCCC3)n(C)c2)CC1 | 758
CCOc1ccc(CC(=O)OCn2nnc3ccccc3c2=O)cc1 | 914
Cc1ccccc1NC(=O)N1CCC(N2CCN(Cc3ccccc3)C2=O)CC1 | 794
CCS(=O)(=O)N(C1CC1)C1CCOC2(CCN(C(=O)c3sc(C)nc3C)CC2)C1 (centres undefined) | 714
CCOC(=O)C1CCN(C(=O)C2CN(C(=O)c3ccc(F)c(F)c3)C2)CC1 | 696
Cc1nnc(-c2cc(NC(=O)c3cccc(Br)c3)c(C)s2)o1 | 938
Cc1nc2cc(-c3noc(-c4ccc(Br)cc4)n3)ccc2o1 | 1230
CCc1nnc2c(=O)n(CC(=O)NC(C)c3ccccc3)c3cccnc3n12 (centres undefined) | 714
O=c1c2c(CO)c(-c3ccccc3)nn2ccn1Cc1ccc(Br)cc1 | 1010
CC(C)(C)c1cc(NC(=O)CSCc2ccccc2)n(CCO)n1 | 772
O=C(NCc1ccco1)Nc1ccc([N+](=O)[O-])cc1 | 852
Cc1ccc(-c2c(C(=O)NCc3ccco3)nc3ccccn23)cc1 | 1150
Cn1cnc2cc(-c3noc(CNC(=O)Cc4ccc(Cl)cc4)n3)ccc21 | 652
O=c1n(CC2CC2)nc2n1CCC(NS(=O)(=O)Cc1ccccc1)CC2 (centres undefined) | 704
CCOc1ccc(N2C=C(C(=O)OC)S(=O)(=O)c3ccc(Br)cc32)cc1 | 1040
CCCNc1cc(N2CCC(CCC(=O)N(C)CCC)CC2)ncn1 | 589
Cc1cc(C(=O)Nc2nnc(-c3cccs3)o2)no1 | 632
CCOc1ccc(C(=O)Nc2cnn(-c3ncncc3N3CCC(C)CC3)c2)cc1 | 929

Structure (SMILES) | RP-LC retention time [s]
CCOc1ccccc1CNC(=O)C1CCN(Cc2cn(CC)c3ccc(OC)cc23)CC1 | 759
Cc1ccc(-n2c(=O)c3sccc3n(Cc3nc(-c4ccc(C(F)(F)F)cc4)no3)c2=O)cc1 | 1190
CC(C)(CO)NC(=O)Cc1ccc(NC(=O)c2ccc(Cl)s2)cc1 | 704
Cc1ccc(OCC(=O)Nc2nnc(SCc3nnc(-c4ccccc4)o3)s2)c(C)c1 | 998
CC1CN(S(=O)(=O)c2cccc(-c3cn4cc(Cl)ccc4n3)c2)CC(C)O1 (centres undefined) | 873
CC(C)CCNC(=O)c1cn(C)nc1S(=O)(=O)N1CCC(C)CC1 | 996
Cc1csc(-c2ccc(CNC(=O)c3ccnn3C)cc2)n1 | 772
Nc1nnc(SCc2nnc(-c3ccccc3)o2)s1 | 654
CC(C)CC(=O)Nc1nc(-c2ccc3c(c2)N(C)C(=O)CO3)cs1 | 830
O=c1c2cc(-c3ccc(F)cc3)nn2cnn1Cc1nc(-c2ccc(Br)cc2)no1 | 1210
CCn1cc(CCNC(=O)c2ccc(OC)cc2)c2cccnc21 | 675
CCC(=O)Nc1ccc(CCc2nc3ccc(C(=O)NC4CCCCCC4)cc3[nH]2)cc1 | 671
COCCNC(=O)C1CCCCN1S(=O)(=O)c1ccc(F)cc1 (centres undefined) | 769
O=C(CSc1ncccn1)Nc1nc(-c2ccccc2)c(-c2ccccc2)o1 | 905
C[C@]12CC[C@@H]3c4ccc(O)cc4C[C@@H](CCCCCCCCCS(=O)CCCC(F)(F)C(F)(F)F)[C@H]3[C@@H]1CC[C@@H]2O (some centres undefined) | 1250
CC1(C)CC(=O)c2cn(-c3ccccc3)c(=O)c(C(=O)NCc3cccs3)c2C1 | 924
Cc1ccc(S(=O)(=O)N2CCC(C(=O)NCc3csc(-c4cccs4)n3)CC2)c(C)c1 | 977
COc1ccc(N2CCN(C(=O)Cc3csc4nc(-c5ccc(OC)c(OC)c5)cn34)CC2)cc1 | 686
COc1ccc(NC(=O)c2cnc3c(c2)c(=O)n(C)c(=O)n3-c2ccc(OC)cc2)cc1 | 859
CSc1ccc(CNC(=O)c2nnn3c2COC(c2ccc(F)cc2)C3)cc1 (centres undefined) | 980

Structure (SMILES) | RP-LC retention time [s]
O=C(CSCc1ccccc1)NCC#CCN1CCc2ccccc2C1 | 581
Cc1[nH]c2ccccc2c1C(=O)C(=O)NC1CC(=O)N(c2ccccc2)C1 (centres undefined) | 711
O=C(Cn1nc2c(SC3CCCCC3)nccn2c1=O)NC1CCCC1 | 939
O=C(NCCS(=O)(=O)N1CCc2ccccc2C1)c1ccc([N+](=O)[O-])o1 | 752
CCCc1ccc(OCC(O)CN2CCN(C)CC2)cc1 (centres undefined) | 551
Cc1ccc(C(=O)N2CCN(c3ccccn3)CC2)cc1NC(=O)C1=CSCCO1 | 604
COc1ccc(CNC(=O)C2=C3CCCN3c3ccccc3S2(=O)=O)cc1 | 795
COc1ccc(N2CCN(C(=O)Cn3cccc3-c3nnc(-c4ccccc4)o3)CC2)cc1 | 907
CCCn1cc(CCNC(=O)Nc2cc(F)ccc2F)c2cccnc21 | 849
Cc1ccc(-c2nc3cnccn3c2NCCC(=O)NCC2CC2)cc1 | 636
CC1CN(c2nc3ccccc3nc2C(C#N)C(=O)OCc2ccccc2)CC(C)O1 (centres undefined) | 1140
CC(C)(C)C(=O)N1CCN(CC(F)(F)F)CC1 | 746
Cc1nn(-c2ccc(F)cc2)c2nc(N3CCCC(C(=O)NCc4ccc(Cl)cc4)C3)sc12 (centres undefined) | 1190
CC(CCc1ccccc1)NC(=O)CCc1c(-c2ccc(Cl)cc2)nc2ccccn12 (centres undefined) | 774
COc1ccc(-n2ccc(=O)c(-c3nc(-c4ccccc4F)no3)n2)cc1 | 822
CCN(CCNC(=O)C1CCc2nc(N3CCOCC3)ncc2C1)c1ccccc1 (centres undefined) | 591
CCN(CC)S(=O)(=O)c1ccc2c(c1)cc(C(=O)NCCc1c[nH]c3ccc(Cl)cc13)n2C | 1060
Cc1cc2c(=O)n(CC(=O)NCc3ccc(Cl)cc3)c3cccnc3n2n1 | 714

Further lines, results first:

RP-LC retention time [s] | Structure (SMILES)
693 | COc1cccc(S(=O)(=O)N2CCCC(Cn3c(C)nc4cccnc43)C2)c1 (centres undefined)
651 | O=C(Nc1ccc(F)cc1)Nc1c(-c2ccccc2)nc2ccccn12
662 | COc1ccc(-c2nc3cnccn3c2Nc2ccc(C(=O)O)cc2)cc1
924 | O=c1c2c(CO)c(-c3ccccc3)nn2ccn1Cc1cc(F)ccc1F
825 | Cc1cccc(C)c1NC(=O)Cn1nc2c(Oc3cccc(F)c3)nccn2c1=O
796 | O=C(Cn1nc(N2CCOCC2)c2ccccc2c1=O)Nc1ccc(F)c(F)c1
614 | COCCC1(NC(=O)c2ocnc2C)CCN(S(C)(=O)=O)CC1
650 | CC(C)CCN(C1CCOCC1)C1CCN(C(=O)Nc2cccc(F)c2)CC1
877 | COc1ccccc1-c1noc(Cn2nc(-c3ccc4c(c3)OCO4)ccc2=O)n1
666 | COc1ccccc1N1CCN(C(=O)c2cc(NC(=O)C(C)C)cc3nc(C)ccc23)CC1
894 | CCc1ccccc1N(C(=O)C1CCCCC1)C1C=CS(=O)(=O)C1 (centres undefined)
956 | COc1ccc(OC)c(NC(=O)N2CCC(c3cnn(-c4ccccc4)c3)CC2)c1
609 | O=C(NCc1ccc(F)cc1)C1(CCO)CCN(c2ncccn2)C1 (centres undefined)
677 | CCCNC(=O)C1CCN(c2ccc(SCC(=O)Nc3cccc(SC)c3)nn2)CC1
679 | CCOCCCNC(=O)C1CCN(c2cnn(Cc3ccccc3)c(=O)c2)CC1
891 | O=C(Nc1ccc2c(c1)OCCO2)N1CCC(OCCOc2ccccc2)CC1

RP-LC retention time [s] | Structure (SMILES)
1020 | Cc1ccc(N2CCN(C(=O)c3c(C)oc4nc(C)nc(N5CCOCC5)c34)CC2)c(C)c1
864 | CCCN1C(=O)c2cc(C(=O)NCCc3ccccc3)nn2CC1(C)C(=O)NC1CCCC1 (centres undefined)
992 | Cc1cc(C)cc(Oc2nccn3c(=O)n(CC(=O)Nc4cccc(Cl)c4C)nc23)c1
725 | COCCNC(=O)N1c2ccccc2NC2=C(C(=O)CC(C)(C)C2)C1c1ccccc1OC (centres undefined)
695 | O=C1CC(C(=O)N(Cc2cccnc2)c2nc3ccccc3s2)CN1c1ccccc1 (centres undefined)
765 | FC1(F)C[C@@H](CN2CCOCC2)N(Cc2cn[nH]c2-c2ccccc2)C1
1000 | Cc1ccccc1-c1noc(-c2nnn3c2COC(c2ccc(F)cc2)C3)n1 (centres undefined)
766 | CCOCc1nc(C2CCCN(C(=O)NC3CCCC3)C2)no1 (centres undefined)
678 | CCN1CCN(C(=O)c2cc(-c3ccc(C)cc3)cn2CC)CC1
1280 | Cc1nc2cc(-c3noc(-c4ccc(C)c(C)c4)n3)ccc2o1
668 | Cc1c(-c2noc(C(=O)NCCN3CCCC3)n2)oc2c(C)cccc12
798 | CC1CCCN(S(=O)(=O)c2ccc(-n3cnc(C(=O)NC4CC4)c3)nc2)C1 (centres undefined)
720 | O=C(NCCC1CCN(C(=O)Nc2ccc(F)cc2F)CC1)C1CCC1
583 | CCOc1ccc(CN2CCC3(CC2)CC(O)CCO3)cc1OC (centres undefined)
780 | Cn1cnc(S(=O)(=O)N2CCC(C(=O)N3CCN(c4cccc(Cl)c4)CC3)CC2)c1
